In patent publication US6686333B1, “Inhibition of HIV replication using soluble Tat peptide analogs” (priority 1996, dated 2004):

Assays:
[1] = tested on: Tat transactivation of the HIV-1 promoter; assay: Transfection and CAT assay: Tat transactivation of HIV-1 LTR-CAT reporter in electroporated CEM lymphocytes; type: cell-based; details: for Tat transactivation (CAT) in presence of peptide: suppression from 95.7, Tat protein 1 μg, peptide 5 μg, HIV-1 LTR-CAT 5 μg, CEM
Method: Initial studies focused on the analysis of a series of Tat peptide analogs, containing various amino acid substitutions, for their ability to inhibit Tat transactivation of the HIV-1 promoter. CEM lymphocytes, grown to early- to mid-log phase, were electroporated with the Tat protein (1 μg), Tat core peptide 36-50 (5 μg) and the HIV-1 LTR-CAT reporter (5 μg).
(§1) Cells were electroporated as described previously (Kashanchi F, et al. (1992), Nucleic Acids Res, 20:4673-4674). CEM CD4^+ lymphocytes (12D7) (as well as U1 and HeLa cells described in subsequent examples) were kept at a density of 0.5 to 0.8×10^6 cells/ml with media added daily. Typically, 5×10^6 cells were electroporated with purified peptides, Tat protein and/or 5 μg of a reporter plasmid. Synthetic Tat peptides were purified by HPLC to 95 percent purity (Peptide Technologies Corporation, Gaithersburg, Md.). All peptides were analyzed for purity on a 4-20 percent gradient SDS/PAGE followed by silver staining. Recombinant Tat protein was purified by reverse phase HPLC and tested for functional activity in an in vitro transcription assay and in vivo electroporation into CEM cells (Kashanchi F, et al. (1992), Nucleic Acids Res, 20:4673-4674; Bohan Calif., et al. (1992) Gene Expr, 2:391-407). Tat peptide, Tat protein, and the reporter HIV LTR-CAT were mixed with cells and electroporated using a cell porater apparatus (Gibco/BRL, Gaithersburg, Md.). Cell mixtures were electroporated at 800 μF, 230 volts, in RPMI 1640 media without fetal calf serum. Following electroporation, cells were plated in 10 ml of complete media and samples collected 48 hours later for either CAT assay, p24 Gag antigen capture assay or northern blot analysis. Samples receiving rTNF-α (R & D System, Minneapolis, MN) after electroporation were collected 48 hours post-treatment for p24 Gag antigen capture assay (ABI, Bethesda, Md.).

[2] = tested on: HIV-1 virus replication in U1/U937 co-cultivation; assay: Co-cultivation of transfected U1 cells with U937 monocyte cell line; type: cell-based; details: seven days of co-cultivation U1:U937 1:5; peptide 2.5 μg with Tat protein
Source text: It was of interest to determine whether the level of virus particles produced in the presence of Tat peptide analog 41/44 was sufficient to initiate a second round of virus replication. This is an important point to consider when designing specific inhibitors for HIV, since detection of p24 or reverse transcriptase in particles is not necessarily an indication of infectious particles. Dimitrov and Martin, Nature, 375:194-195 (1994). To address this question, we utilized co-cultivation assays in which the induced Ul cells were co-cultivated with the parental U937 monocyte cell line.
Transfected U1 cells (5×10^6) were co-cultivated with the U937 cells 48 hrs after transfection. The co-cultivation assay was initially tested using either a 1:1, 1:5, or 1:25 ratio of infected to uninfected cells. A 1:5 co-cultivation was determined to be the optimal ratio in obtaining the highest viral production within a 2 week period. Cells were co-cultivated in a total of 4 mls for a period of 2 weeks. After the fist week, 2 mls of media cells was removed and 2 mls of fresh media added. Both U937 and CEM cells were seeded at a density of 0.5×10^6 cells per culture dish prior to the co-cultivation experiment.
Initially, cells were electroporated with either wild type (2.5 μg) or peptide analog 41/44 (2.5 μg), along with Tat protein. […]

[3] = tested on: HTLV-1 promoter; assay: CAT assay with HTLV-1 LTR (pU3R CAT) reporter, basal and Tax1 transactivated; type: cell-based; details: for basal transcription of the HTLV-1 promoter: decreased from 19
Method: as §1
(§2) It was of interest to determine if the peptides inhibited transcription from other polymerase II promoters. We have tested seven promoters including HTLV-1, CMV, PTHrP, IgH, RAS, RSV, and SIV. Each promoter, cloned upstream of the CAT reporter gene, was cotransfected individually with the Tat peptides under identical conditions. Electroporation was as in Example 1 but reporter genes used were HTLV-1 LTR (pU3R CAT, 5 μg) or pCMV-CAT (5 μg), containing the CMV promoter. […] For example, basal transcription of the HTLV-1 promoter decreased from 19 to 15.6 and 16.4 percent using 1 and 5,μg of the peptide analog 41/44. Similarly, Tat peptide analog 41/44 decreased Tax1 (1 μg) transactivated transcription approximately two-fold (49.2 to 22.8 percent). In other control experiments, transcription from the CMV promoter was decreased from 17.8 to 9.04 and 6.7 percent in the presence of 1 or 5 μg of Tat peptide analog 41/44.

[4] = tested on: HIV virus replication in U1 cells; assay: Tat-induced virus production in latently infected U1 cells, p24 antigen capture assay; type: cell-based, HIV-1; details: Tat protein 2.5 μg
Method: as §1, with “Samples receiving rTNF-α (R & D System, Minneapolis, MN) after electroporation were collected 48 hours post-treatment for p24 Gag antigen capture assay (ABI, Bethesda, Md.).” left out

[5] = tested on: TBP/Tat-activated transcription; assay: Gal4-Tat / CMV-TBP activated minimal HIV-1 promoter CAT assay in CEM cells; type: cell-based; details: CEM T-cells, Gal4-TATA+/TAR- reporter
Method: It was of interest to determine if the Tat peptide analog targeted the interaction of Tat with TBP in vivo. For these experiments, we used a minimal HIV-1 promoter (−31 to +21) with Gal4 binding sites located upstream of the promoter. CEM cells were transfected with combinations of Gal4-TATA^+/TAR^− reporter plasmid, Gal4-Tat and a CMV-TBP expression plasmid. Southgate CD, et al. (1991), Genes Dev, 5:2496-2507; Horikoshi N, et al. (1995), Mol Cell Biol, 15:227-234. Peptides were added at the time of electroporation. Following electroporation, cells were plated in complete media, harvested at 48 hours and CAT assays performed. The Gal4-TAT^+/TAR^− plasmid contains six Gal4 binding sites, followed by the HIV sequence from −31 to […]. This construct contains no Sp1 sites or a TAR element.
The ability of Gal4-Tat to activate this promoter is dependent upon the presence of exogenously added TBP. […] Xhou Q, et al. (1995), EMBO J, 14:321-328; Huang L M, et al. (1994), EMBO, 13:2886-2896. We next examined if the peptides were capable of downregulating the TBP/Tat-activated transcription by electroporating CEM T-cells with either wild type or peptide 41/44.

[6] = tested on: CMV promoter; assay: CAT assay with pCMV-CAT reporter; type: cell-based; details: decreased from 17.8
Method: as §1, with “Samples receiving rTNF-α (R & D System, Minneapolis, MN) after electroporation were collected 48 hours post-treatment for p24 Gag antigen capture assay (ABI, Bethesda, Md.).” left out

[7] = tested on: HIV-1 viral mRNA; assay: Northern blot of U1 cells, HIV-1 viral mRNA; type: cell-based; details: U1 cells treated with Tat and peptide, 48 hrs
Method: (§3) For northern blot analysis, U1 or HLM1 (Tat HIV proviral clone, Sadaie M R, et al. (1994), Virology, 202:513-518) cells were transfected with either Tat protein, or Tat protein in combination with peptides and collected 48 hrs later. Total RNA was extracted using the Trizol reagent (Gibco/BRL). RNA concentration was measured and equivalent amounts of RNA (5 μg) were loaded on a formaldehyde-agarose gel. The RNA was blotted onto nitrocellulose and hybridized with a randomly primed ^32P-labelled HIV-1 proviral genome BH10 (Lofstrand, Inc.), histone H2b, β-Actin or GAPDH probe (Oncor Science, Inc.). Blots were washed, exposed and quantitated using a PhosphorImager (Molecular Dynamics) […].
(§4) Cellular RNAs including actin, histone H2b, and GAPDH, were monitored in cells treated with Tat and peptide analogs. […] In contrast, no change in the expression of the cellular GAPDH gene was observed.

[8] = tested on: cellular GAPDH gene; assay: Northern blot of U1 cells, cellular RNA; type: cell-based; details: U1 cells treated with Tat and peptide
Method: as §3, §4

[9] = tested on: HTLV-1, CMV, PTHrP, IgH, RAS, RSV, and SIV promoters; assay: CAT assays with other polymerase II promoters; type: cell-based; details: seven promoters upstream of CAT, cotransfected with Tat peptides
Method: as §2

Substance: V-C-F-T-T-K-A-L-G-I-S-Y-G-R-K (SEQ ID NO:2) (VCFTTKALGISYGRK) [Tat 36-50, wild type Tat core peptide, amino acids 36-50, reference compound]
- drop in transcription activity ([1]; peptide included in the transfection with Tat protein): no apparent drop in transcription activity
- decrease of virus production in co-cultivation [2]: did not inhibit HIV virus replication

Substance: V-C-F-T-T-A-A-L-G-I-S-A-G-R-K (SEQ ID NO:9) (VCFTTAALGISAGRK) [Tat 36-50 (41/47)]
- Tat transactivation (CAT) in presence of peptide [1]: 12%

Substance: V-C-F-T-T-A-A-L-A-I-S-Y-G-R-K (SEQ ID NO:7) (VCFTTAALSISYGRK) [Tat peptide analog 41/44]
- basal transcription of the HTLV-1 promoter ([3]; 1 μg peptide): 15.6%
- basal transcription of the HTLV-1 promoter ([3]; 5 μg peptide): 16.4%
- decrease of Tax1 transactivated transcription ([3]; Tax1 1 μg, 49.2 to 22.8 percent): approximately two-fold
- Tax1 transactivated transcription ([3]; Tax1 1 μg, decreased from 49.2): 22.8%
- inhibition of virus replication in U1 cells ([4]; comparable experiment with 36-72 peptides): approximately 75%
- inhibition of Tat-induced virus production in U1 cells ([4]; peptide 5 μg, in comparison to wild type peptide 5 μg, p24, 48 hours): approximately 85%
- inhibition of TBP/Tat-activated transcription [5]: inhibited TBP/Tat-activated transcription
- transcription from the CMV promoter ([6]; 1 μg peptide): 9.04%
- transcription from the CMV promoter ([6]; 5 μg peptide): 6.7%
- level of HIV-1 viral mRNA [7]: a decrease in the level of HIV-1 viral mRNA was detected
- Tat transactivation (CAT) in presence of peptide [1]: 1.1%
- decrease of virus production in co-cultivation [2]: 85%
- expression of the cellular GAPDH gene [8]: no change
- inhibition of transcription from other polymerase II promoters [9]: minimal inhibition

Substance: V-C-F-T-T-A-A-L-G-I-A-Y-G-R-K (SEQ ID NO:8) (VCFTTAALGIAYGRK) [peptide 41/46]
- Tat transactivation (CAT) in presence of peptide [1]: 5.5%
